Patent publication US7011938B2, “Method of measuring platelet activation” (Barts and The London NHS Trust, priority 2000, dated 2006)
Values joined by “and” are separate entries in the source; they are usually repeats but may differ in a detail not shown here. Identical values can stand only once. Counter-ions that a name gives are not always drawn.

Experiments:
platelets [1] = settings: over a period of 1–2 h; impedance procedures; depends on sodium citrate concentration; cited from earlier work
platelets in whole blood [2] = test: Assessment of platelet activation on the ADVIA 120 (PLT, MPV, MPC, PCDW, MPM); type: cell-based, human; settings: for Platelet count in blood: CTAD and E/C corrected for dilution; for Platelet counts in blood: Example 3 Table 1, ambient temperature, mean of 7
Experimental: Assessment of platelet activation on the ADVIA 120. Whole blood samples were taken into Vacutainer™ containers (Becton Dickinson) containing either EDTA, CTAD, or a mixture of EDTA and CTAD (E/C). Samples were analysed immediately post-venesection and at timed intervals of 30, 60, 120, and 180 minutes post venesection. Analysis of platelet count (PLT), mean platelet volume (MPV), mean platelet component (MPC) and mean platelet component distributionwidth (PCDW) was performed using the ADVIA 120 Haematology System (Bayer Corporation, Tarrytown, N.Y.) calibrated prior to use with ADVIA TESTpoint Haematology Control reagents. (Bayer Corporation, Tarrytown, N.Y.).
Whole blood samples were taken into Vacutainer™ containers (Becton Dickinson) containing EDTA and mixed with the aforementioned platelet antagonists, or with CTAD (this mixture is referred to as E/C). Samples were analysed as in Example 1.
(§1) Whole blood samples were taken into Vacutainer™ containers that contained either K3EDTA, or CTAD, or a mixture of K3EDTA and CTAD (E/C). For the latter, blood was collected first into K3EDTA and then immediately transferred to a Vacutainer™ containing CTAD. Samples were held at ambient temperature, analysed immediately and at 30, 60, 120, and 180 min after venesection. Analysis of platelet count (PLT), mean platelet volume (MPV) and mean platelet component concentration (MPC) was done using the ADVIA®120 haematology system (Bayer Corporation, Tarrytown, N.Y.) Platelet counts made in blood anticoagulated with CTAD and E/C were corrected for dilution (dilution factors were 1.11 and 1.125 respectively). The system was calibrated and standardised prior to use with ADVIA®-SETpoint Haematology Control and ADVIA® OPTIpoint, respectively (Bayer Corporation). In one series of experiments (n=4) these analyses were performed on blood samples anticoagulated with E/C but held at ambient temperature and at 4° C. to investigate the effect of cooling on platelet activation.

platelets in whole blood [3] = test: Expression of CD62P on platelets by flow cytometry; type: cell-based, human; settings: for CD62P % expression in blood: Example 1, n=6, mean±se; for CD62P % positive platelets in blood: Example 3, at RT
Experimental: (§2) Measurement of the expression CD62P and the number of leucocyte platelet aggregates (PLAs). Anti-coagulated blood (5 μl) was incubated at room temperature with either FITC CD62P (5 μl) or FITC isotype control (5 μl), or PE CD45 (5 μl) and FITC isotype control (5 μl) or FITC CD42a (5 μl) and PE CD45 (5 μl), in 90 μl of TS for 5 min. Samples were diluted to 1 ml with TS and analysed immediately by flow cytometry.
(§3) Flow cytometry. Blood cells were analysed on a FACScan (Becton Dickinson, Oxford, UK) equipped with CellQuest® software. The flow cytometer was calibrated prior to use with fluorochrome labelled beads (Fluorospheres™, Dako).
For the analysis of CD62P expression data was acquired in real time with a primary gate set on a dual parameter histogram of forward light scatter (FLS) logarithmic scale (abscissa) and side light scatter (SLS) logarithmic scale (ordinate). This facilitated identification of the platelets within the blood and was confirmed by the analysis of CD42a expression (FIG. 1). Background fluorescence was assessed with platelets labelled with the FITC conjugated isotype control antibody. Cursors were set in a single parameter histogram of frequency (ordinate) and green fluorescence intensity (abscissa), so that less than 1% of the platelets stained positively with the control antibody. Changes in CD62P expression (green fluorescence logarithmic scale), together with those of FLS and SLS, were then recorded on the gated platelets.

[4] = test system: platelet leucocyte aggregates in whole blood; test: Platelet-leucocyte aggregates (PLAs) by flow cytometry; type: cell-based, human
Experimental: as §2, §3
For the analysis of platelet-leucocyte aggregates (FIG. 2), cells were analysed in a histogram of side scatter (logarithmic scale ordinate) and orange fluorescence (logarithmic scale abscissa). Leucocytes identified by their positive staining with PE CD45 were gated to a histogram of green fluorescence (logarithmic scale ordinate) and orange fluorescence (logarithmic scale abscissa). Events that were both green and orange were considered platelet leucocyte aggregates and recorded as a percentage of a total of 10,000 gated leucocytes.
As Example 1. Platelet-leucocyte aggregates could then be gated to a histogram (C) of side scatter (logarithmic scale ordinate) and orange fluorescence (logarithmic scale abscissa) to identify, by their characteristic SLS, which leucocytes were forming PLAs.

whole blood = test: Comparison of ADVIA 120 haematology results in anticoagulated blood; type: cell-based, human; settings: Table 2, Mean (+/-S.E.) at 30 minutes, 7 control samples
Experimental: as §1

platelets [5] = settings: room temperature; on average; Threatte et al., 1984; cited from earlier work
[6] = Example 1, 30 min, n=6, mean±se
[7] = Example 1, 60 min, n=6, mean±se
[8] = Example 1, 120 min, n=6, mean±se
[9] = Example 1, 180 min, n=6, mean±se

## O=C(O)CC(O)(CC(=O)O)C(=O)O [citrate, trisodium citrate]
Platelets [1]
  increase in platelet volume: 3–10%

## O=C(O)CN(CCN(CC(=O)O)CC(=O)O)CC(=O)O [EDTA, Ethylenediaminetetra-acetic acid]
Platelets in whole blood [2]; Example 1, 0 min, n=6
  Platelet count in blood: 235±12
Platelets in whole blood [2]; Example 1, 0 min, n=6, mean±se
  MPC in blood: 28.0 ± 0.87 g/dL
  MPV in blood: 8.0 ± 0.37 fL
  PCDW in blood: 5.85 ± 0.28 g/dL
Platelets in whole blood [2]; Example 1, 30 min, n=6
  Platelet count in blood: 246 ± 14
Platelets in whole blood [2]; [6]
  MPC in blood: 29.1 ± 0.52 g/dL
  MPV in blood: 7.7 ± 0.27 fL
  PCDW in blood: 5.00 ± 0.09 g/dL
Platelets in whole blood [2]; Example 1, 60 min, n=6
  Platelet count in blood: 249 ± 14
Platelets in whole blood [2]; [7]
  MPC in blood: 28.8 ± 0.42 g/dL
  MPV in blood: 7.7 ± 0.24 fL
  PCDW in blood: 5.00 ± 0.12 g/dL
Platelets in whole blood [2]; Example 1, 120 min, n=6
  Platelet count in blood: 247 ± 14
Platelets in whole blood [2]; [8]
  MPC in blood: 27.9 ± 0.48 g/dL
  MPV in blood: 8.0 ± 0.30 fL
  PCDW in blood: 4.80 ± 0.11 g/dL
Platelets in whole blood [2]; Example 1, 180 min, n=6
  Platelet count in blood: 246 ± 5
Platelets in whole blood [2]; [9]
  MPC in blood: 27.1 ± 0.36 g/dL
  MPV in blood: 8.1 ± 0.21 fL
  PCDW in blood: 4.80 ± 0.08 g/dL and 4.80 ± 0.06 g/dL
Platelets in whole blood [2]; Example 3, at RT, 0 min
  MPC in blood: 2.8e-12 ± 8.7e-14 g/dL
  MPV in blood: 8.0 ± 0.37 fL
Platelets in whole blood [2]; Example 3, at RT, 30 min
  MPC in blood: 2.91e-12 ± 5.2e-14 g/dL
  MPV in blood: 7.7 ± 0.27 fL
Platelets in whole blood [2]; Example 3, at RT, 60 min
  MPC in blood: 2.88e-12 ± 4.2e-14 g/dL
  MPV in blood: 7.7 ± 0.24 fL
Platelets in whole blood [2]; Example 3, at RT, 120 min
  MPC in blood: 2.79e-12 ± 4.8e-14 g/dL
  MPV in blood: 8.0 ± 0.30 fL
Platelets in whole blood [2]; Example 3, at RT, 180 min
  MPC in blood: 2.71e-12 ± 3.6e-14 g/dL
  MPV in blood: 8.1 ± 0.21 fL
Platelets in whole blood [2]; 0 min
  Platelet counts in blood: 235 ± 13
Platelets in whole blood [2]; 30 min
  Platelet counts in blood: 246 ± 14
Platelets in whole blood [2]; 180 min
  Platelet counts in blood: 246 ± 5
Platelets in whole blood [3]; 0 min post venesection
  CD62P % expression in blood: 1.10 ± 0.24%
Platelets in whole blood [3]; 30 min
  CD62P % expression in blood: 3.71 ± .04%
  CD62P % positive platelets in blood: 3.71 ± 1.04%
Platelets in whole blood [3]; 60 min
  CD62P % expression in blood: 11.27 ± .60%
  CD62P % positive platelets in blood: 11.27 ± 1.60%
Platelets in whole blood [3]; 120 min
  CD62P % expression in blood: 18.94 ± 2.53%
  CD62P % positive platelets in blood: 18.94 ± 2.53%
Platelets in whole blood [3]; 180 min
  CD62P % expression in blood: 23.05±2.79%
  CD62P % positive platelets in blood: 23.05 ± 2.79%
Platelets in whole blood [3]; 0 min
  CD62P % positive platelets in blood: 1.10 ± 0.24%
Platelets in whole blood [3]; 0 min, listed as K3EDTA
  CD62P % positive platelets in blood: 1.10±0.61%
Platelets in whole blood [3]; 180 min, listed as K3EDTA
  CD62P % positive platelets in blood: 23.05±1.54%
[4]; Example 1, 0 min, n=6, mean±se
  % platelet leucocyte aggregates in blood: 3.50±0.50%
[4]; [6]
  % platelet leucocyte aggregates in blood: 4.16 ± 0.86%
[4]; [7]
  % platelet leucocyte aggregates in blood: 8.87 ± 1.54%
[4]; [8]
  % platelet leucocyte aggregates in blood: 8.50 ± 1.44%
[4]; [9]
  % platelet leucocyte aggregates in blood: 13.50±2.41%
[4]; Example 3, at RT, 0 min
  % platelet leucocyte aggregates in blood: 3.30 ± 0.5%
[4]; Example 3, at RT, 0 min, listed as K3EDTA
  % platelet leucocyte aggregates in blood: 3.50±0.71%
[4]; Example 3, at RT, 30 min
  % platelet leucocyte aggregates in blood: 4.16 ± 0.86%
[4]; Example 3, at RT, 60 min
  % platelet leucocyte aggregates in blood: 8.87 ± 1.54%
[4]; Example 3, at RT, 120 min
  % platelet leucocyte aggregates in blood: 8.50 ± .44%
[4]; Example 3, at RT, 180 min
  % platelet leucocyte aggregates in blood: 13.50 ± 1.74%
[4]; Example 3, at RT, 180 min, listed as K3EDTA
  % platelet leucocyte aggregates in blood: 13.50±1.74%
Whole blood
  MPC: 29.1 (0.52) g/dL
  MPV: 7.7 (0.27) fL
  PCDW: 5.00 (0.09) g/dL
  PCT: 0.19 (0.01) %
  PDW: 58.9 (3.24) %
Whole blood; CTAD ×1.11, E/C ×1.125
  PLT: 246 (14) 109/L
Platelets [5]
  MPV greater than in corresponding citrate anticoagulated blood: 23%
